Values after ≈ are worked out from the molar mass of the structure shown.
How the values were obtained:
[1] = Recovery in bile after oral administration (absorption and excretion); assay type: in vivo, rats; conditions: 20 mg/kg, rat, prepared as for urine (20 mg/10 ml/kg), disk method, read-out: Excretion Rate In Bile
Procedure: (§1) The absorbability and excretion after oral administration of the compounds, of the present invention were tested by measuring recovery in urine and in bile as follows.
A subject compound was prepared in the same manner as the recovery in urine and was orally administrated to the rats and bile was collected by using a polyethylene tube inserted into the choledochus in 24 hours. The concentration of the subject compound in the bile sample was examined in the same manner as the recovery in urine to obtain an excretion rate in bile for 24 hours.

[2] = Recovery in urine after oral administration (absorption and excretion); assay type: in vivo, male JCL-SD rats; conditions: 20 mg/kg, rat, 20 mg/10 ml/kg in 0.5% methylcellulose, disk method, read-out: Excretion Rate In Urine
Procedure: as §1
To a group of three male JCL-SD rats (6 weeks old) fasted overnight, a subject compound was prepared to 20 mg/10 ml/kg with 0.5% of methylcellulose solution and was orally administrated. The sampling was carried out by collecting urine in 0 to 6 hours and 6 to 24 hours. The concentration of the subject compound in the urine was examined by a disk method by using Bacillus subtilis ATCC 33 as a testing bacillus to obtain an excretion rate in urine for 24 hours.

[3] = system: P. aeruginosa (IFO 3445); assay: Antimicrobial activity, minimum inhibitory concentration (MIC), P. aeruginosa; assay type: cell-based; conditions: Pseudomonas aeruginosa, IFO3445
Procedure: (§2) The minimum inhibitory concentration (MIC: μg/ml) of typical compounds represented by general formula (1) of the present invention is measured by the standard method of Japanese literature "Chemotherapy, Volume 29, No. 1, pp. 76-79, 1981". The results are shown in Table 1 in which compound numbers are the same as those indicated in Examples.

[4] = system: E. coli NIH JC-2 (IFO 12734); assay: Antimicrobial activity, minimum inhibitory concentration (MIC), E. coli NIH JC-2; assay type: cell-based; conditions: Escherichia coli, IFO12734
Procedure: as §2

[5] = system: S. aureus 209p (IFO 12732); assay: Antimicrobial activity, minimum inhibitory concentration (MIC), S. aureus 209p; assay type: cell-based; conditions: Staphylococcus aureus
Procedure: as §2

With `C[C@H]1CN(c2c(F)cc3c(=O)c(C(=O)O)cn4c3c2CCN4C)C[C@H]1N` (single isomer, unassigned) [Compound 30, 4-(cis (-) 3-Amino-4-methylpyrrolidin-1-yl)-5-fluoro-2,3-dihydro-1-methyl-7-oxo-1H,7H-pyrido[3,2,1-ij]cinnoline-8-carboxylic acid] the dose excreted at 24 h [1] was 3.8%, the dose excreted at 24 h [2] was 59.7% and the MIC [3] was 0.2 µg/mL (≈ 0.555 µM). The MIC [4] was 0.025 µg/mL (≈ 0.0694 µM) and the MIC [5] was 0.1 µg/mL (≈ 0.277 µM).

Work on `CN1CCc2c(OCC3(N)CC3)c(F)cc3c(=O)c(C(=O)O)cn1c23` [Compound 73] yielded an MIC [3] of 0.78 µg/mL (≈ 2.25 µM), an MIC [4] of 0.1 µg/mL (≈ 0.288 µM) and an MIC [5] of 0.78 µg/mL (≈ 2.25 µM).

From patent US5399553A, “Tricyclic compound or salts thereof, method for producing the same and anti-microbial agent containing the same” (Wakunaga Seiyaku Kabushiki Kaisha, priority 1990, dated 1995)
